Test results published in patent US11021481B2, “Substituted isoindolin-1-ones and 2,3-dihydro-1h-pyrrolo[3,4-c]pyridin-1-ones as HPK1 antagonists” (Nimbus Saturn, Inc., priority 2019, dated 2021).

Molecular target: HPK1 (Homo sapiens (Human), UniProt Q92918)
Assay: HPK1 biochemical enzyme assay (microfluidic mobility shift assay)
Settings: 1.5 nM HPK1, ATP 1 mM final, 30 min preincubation, 60 min at RT, Caliper EZ Reader; read-out: HPK1 1000UMATP caliper IC50
Procedure, shortened: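 Mobility shift readout of HPK1 activity after a 60 min RT reaction with 1 mM ATP, 1 μM substrate and 5 mM MgCl2. Enzyme/substrate mix was first exposed to compounds for 30 min, using ten-point curves topping at 3 μM final.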

Chain of HPK1 (Q92918 whole entry): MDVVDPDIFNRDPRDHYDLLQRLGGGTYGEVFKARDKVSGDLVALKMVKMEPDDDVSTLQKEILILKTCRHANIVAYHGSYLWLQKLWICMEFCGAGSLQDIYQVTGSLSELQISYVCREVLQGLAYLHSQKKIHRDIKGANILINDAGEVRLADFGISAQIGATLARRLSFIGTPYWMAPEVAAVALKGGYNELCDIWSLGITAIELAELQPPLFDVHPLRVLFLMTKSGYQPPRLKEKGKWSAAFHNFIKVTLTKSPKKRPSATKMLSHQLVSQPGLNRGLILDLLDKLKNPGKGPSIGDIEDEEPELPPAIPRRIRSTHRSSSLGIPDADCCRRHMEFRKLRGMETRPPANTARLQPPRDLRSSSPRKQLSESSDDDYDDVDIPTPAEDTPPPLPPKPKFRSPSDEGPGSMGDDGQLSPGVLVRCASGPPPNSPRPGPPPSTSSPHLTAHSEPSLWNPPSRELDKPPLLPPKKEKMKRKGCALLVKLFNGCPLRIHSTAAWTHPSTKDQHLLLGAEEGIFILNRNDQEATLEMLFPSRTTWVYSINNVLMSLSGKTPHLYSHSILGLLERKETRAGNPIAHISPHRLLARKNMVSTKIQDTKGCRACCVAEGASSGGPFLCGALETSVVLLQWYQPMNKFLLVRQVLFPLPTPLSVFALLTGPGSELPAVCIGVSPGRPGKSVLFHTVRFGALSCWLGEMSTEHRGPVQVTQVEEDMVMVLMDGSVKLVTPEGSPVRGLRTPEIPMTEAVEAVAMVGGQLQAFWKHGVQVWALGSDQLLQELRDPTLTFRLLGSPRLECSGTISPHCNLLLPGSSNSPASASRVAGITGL

IC50 [nM] | SMILES
< 100 | CN(C)CCOC1(c2ccc(Nc3ccc(-c4cnc5cc(F)ccn45)c4c3C(=O)NC4)nc2)CCOCC1 [I-669, 7-((5-(4-(2-(dimethylami-no)ethoxy)tetra-hydro-2H-pyran-4-yl)pyridin-2-yl)amino)-4-(7-fluoroimidazo [1,2-a]pyridin-3-yl)isoindolin-1-one]
< 100 | CN1CCN(Cc2ccc(Nc3ccc(-c4cnc5c(F)c(C(F)F)ccn45)c4c3C(=O)NC4)nc2)C(C)(C)C1 [I-672, 4-(7-(difluorometh-yl)-8-fluoroimidazo [1,2-a]pyridin-3-yl)-7-((5-((2.2.4-trimethylpiper-azin-1-yl)methyl)pyri-din-2-yl)amino)isoin-dolin-1-one]
< 100 | CN1CCCC1C1(O)CCN(c2ccc(Nc3ccc(-c4cnc5cc(F)ccn45)c4c3C(=O)NC4)nc2)CC1 (stereo not drawn) [I-677, 4-(7-fluoroimidazo [1,2-a]pyridin-3-yl)-7-((5-(4-hydroxy-4-(1-methylpyrrol-idin-2-yl)piperidin-1-yl)pyridin-2-yl)amino)isoin-dolin-1-one]
100 to 1000 | Cn1ccc2c(-c3ncc(Nc4cccc(N5CC6(CCN6)C5)n4)c4c3CNC4=O)ccnc21 [I-680, 7-((6-(l,6-diazaspiro[3,3]heptan-6-yl)pyridin-2-yl)amino)-4-(1-methyl-1H-pyrrolo[2,3-b]pyridin-4-yl)-2,3-dihydro-1H-pyrrolo[3,4-c]pyridin-1-one]
< 100 | COc1cc(Nc2cnc(-c3ccnc4c3ccn4C)c3c2C(=O)NC3)nc(N2CC[C@H]3CNC[C@H]32)c1 [I-681, 7-((6-((3aS, 6aS)-hexahydropyrrolo[3,4-b]pyrrol-1(2H)-yl)-4-methoxypyridin-2-yl)amino)-4-(1-methyl-1H-pyrrolo[2,3-b]pyridin-4-yl)-2,3-dihydro-1H-pyrrolo[3,4-c]pyridin-1-one]
100 to 1000 | COc1cc(Nc2cnc(-c3ccnc4c3ccn4C)c3c2C(=O)NC3)nc(N2CC[C@@H]3CNC[C@@H]32)c1 [I-682, 7-((6-((3aR,6aR)-hexahydro-pyrrolo[3,4-b]pyrrol-l(2H)-yl)-4-methoxypyridin-2-yl)amino)-4-(1-methyl-1H-pyrrolo[2,3-b]pyridin-4-yl)-2,3-dihydro-1H-pyrrolo[3,4-c]pyridin-1-one]
< 100 | O=C1NCc2c(-c3cnc4c(F)cccn34)ncc(Nc3ccc(C4(O)CCOCC4)cn3)c21 [I-683, 4-(8-fluoroimidazo [1,2-a]pyridin-3-yl)-7-((5-(4-hydroxytetra-hydro-2H-pyran-4-yl)pyridin-2-yl)amino)-2,3-dihydro-1H-pyrrolo[3,4-c)pyridin-1-one]
< 100 | Cn1ccc2c(-c3ncc(Nc4ccnc(N5CC[C@H]6CNC[C@H]65)n4)c4c3CNC4=O)ccnc21 [I-684, 7-((2-((3aS, 6aS)-hexahydro-pyrrolo[3,4-b]pyrrol-1(2H)-yl)pyrimidin-4-yl)amino)-4-(1-methyl-1H-pyrrolo[2,3-b)pyridin-4-yl)-2,3-dihydro-1H-pyrrolo[3,4-c]pyridin-1-one]
100 to 1000 | Cn1ccc2c(-c3ncc(Nc4ccnc(N5CC[C@@H]6CNC[C@@H]65)n4)c4c3CNC4=O)ccnc21 [I-685, 7-((2-((3aR,6aR)-hexahydro-pyrrolo[3,4-b]pyrrol-1(2H)-yl)pyrimidin-4-yl)amino)-4-(1-methyl-1H-pyrrolo[2,3-b]pyridin-4-yl)-2,3-dihydro-1H-pyrrolo[3,4-c]pyridin-1-one]
> 1000 | Cn1ccc2c(-c3ncc(Nc4cccc(N5C[C@@H](CN6CCC6)CCC5=O)n4)c4c3CNC4=O)ccnc21 [I-688, (R)-7-((6-(5-(azetidin-1-ylmethyl)-2-oxopiperidin-1-yl)pyridin-2-yl)amino)-4-(1-methyl-1H-pyrrolo[2,3-b]pyridin-4-yl)-2,3-dihydro-1H-pyrrolo[3,4-c]pyridin-1-one]
100 to 1000 | Cn1ccc2c(-c3ncc(Nc4cccc(N5C[C@H](CN6CCC6)CCC5=O)n4)c4c3CNC4=O)ccnc21 [I-689, (S)-7-((6-(5-(azetidin-1-ylmethyl)-2-oxopiperidin-1-yl)pyridin-2-yl)amino)-4-(1-methyl-1H-pyrrolo[2,3-b]pyridin-4-yl)-2,3-dihydro-1H-pyrrolo[3,4-c]pyridin-1-one]
< 100 | Cn1ccc2c(-c3ncc(Nc4cccc(N5C[C@H](N)CC5=O)n4)c4c3CNC4=O)ccnc21 [I-691, (R)-7-((6-(4-amino-2-oxopyrrolidin-1-yl)pyridin-2-yl)amino)-4-(1-methyl-1H-pyrrolo[2,3-b]pyridin-4-yl)-2,3-dihydro-1H-pyrrolo[3,4-c]pyridin-1-one]
< 100 | Cn1ccc2c(-c3ncc(Nc4cccc(N5C[C@@H](N)CC5=O)n4)c4c3CNC4=O)ccnc21 [I-692, (S)-7-((6-(4-amino-2-oxopyrrolidin-1-yl)pyridin-2-yl)amino)-4-(1-methyl-1H-pyrrolo[2,3-b]pyridin-4-yl)-2,3-dihydro-1H-pyrrolo[3,4-c]pyridin-1-one]
< 100 | CN(C)Cc1nc(Nc2ccc(-c3cnc4cc(F)ccn34)c3c2C(=O)NC3)ccc1N1CCOCC1 [I-693, 7-((6-((dimethylamino)-methyl)-5-morpholino-pyridin-2-yl)amino)-4-(7-fluoroimidazo [1,2-a]pyridin-3-yl)isoindolin-1-one]
< 100 | CC(C)([C@@H]1CN(c2ccc(Nc3ccc(-c4cnc5cc(F)ccn45)c4c3C(=O)NC4)nc2)CCO1)N1CC(O)C1 [I-697, (S)-4-(7-fluoroimidazo [1,2-a]pyridin-3-yl)-7-((5-(2-(2-(3-hydroxyazetidin-1-yl)propan-2-yl)morpholino)pyridin-2-yl)amino)isoin-dolin-1-one]
< 100 | CC(C)([C@H]1CN(c2ccc(Nc3ccc(-c4cnc5cc(F)ccn45)c4c3C(=O)NC4)nc2)CCO1)N1CC(O)C1 [I-698]
< 100 | CN(C)Cc1cccc(Nc2ccc(-c3cnc4cc(F)ccn34)c3c2C(=O)NC3)n1 [I-699, 7-((6-((dimethylamino)methyl)pyri-din-2-yl)amino)-4-(7-fluoroimidazo [1,2-a]pyridin-3-yl)isoindolin-1-one]
< 100 | CN(C)Cc1nc(Nc2ccc(-c3cnc4cc(F)ccn34)c3c2C(=O)NC3)ccc1N1CC[C@@H](F)[C@H](O)C1 [I-700, 7-((6-((dimethylamino)-methyl)-5-((3R,4R]-4-fluoro-3-hydroxypiperidin-1-yl)pyridin-2-yl)amino)-4-(7-fluoroimidazo [1,2-a]pyridin-3-yl)isoindolin-1-one]
< 100 | CN(C)Cc1nc(Nc2ccc(-c3cnc4cc(F)ccn34)c3c2C(=O)NC3)ccc1N1CC[C@H](F)[C@@H](O)C1 [I-701, 7-((6-((dimethylamino)-methyl)-5-((3S.4S]-4-fluoro-3-hydroxypiperidin-1-yl)pyridin-2-yl)amino)-4-(7-fluoroimidazo [1,2-a]pyridin-3-yl)isoindolin-1-one]
< 100 | NCc1nc(Nc2ccc(-c3cnc4cc(F)ccn34)c3c2C(=O)NC3)ccc1[C@@H]1CCOC1 [I-702, (S)-7-((6-(aminomethyl)-5-(tetrahydrofuran-3-yl)pyridin-2-yl)amino)-4-(7-fluoroimidazo [1,2-a]pyridin-3-yl)isoindolin-1-one]
< 100 | Cc1ccn2c(-c3ccc(Nc4ccc([C@@H]5CCOC5)c(CN(C)C)n4)c4c3CNC4=O)cnc2c1F [I-704, (S)-7-((6-((dimethylamino)-methyl)-5-(tetrahydrofuran-3-yl)pyridin-2-yl)amino)-4-(8-fluoro-7-methylimidazo [1,2-a]pyridin-3-yl)isoindolin-1-one]
